In ChEMBL document CHEMBL1201862, “PubChem BioAssay data set” (2004):
The source made the active and inactive calls.

Legend:
[1] = target: T1, Rac GTPase-activating protein 1 (Homo sapiens, UniProt Q9H0H5); assay: blockers of MgcRacGAP-driven Rac1 GTP hydrolysis – biochemical, ADP Hunter fluorescence, primary and confirmatory, confirmation (AID 624330); type: functional
T1 sequence (Q9H0H5 whole entry): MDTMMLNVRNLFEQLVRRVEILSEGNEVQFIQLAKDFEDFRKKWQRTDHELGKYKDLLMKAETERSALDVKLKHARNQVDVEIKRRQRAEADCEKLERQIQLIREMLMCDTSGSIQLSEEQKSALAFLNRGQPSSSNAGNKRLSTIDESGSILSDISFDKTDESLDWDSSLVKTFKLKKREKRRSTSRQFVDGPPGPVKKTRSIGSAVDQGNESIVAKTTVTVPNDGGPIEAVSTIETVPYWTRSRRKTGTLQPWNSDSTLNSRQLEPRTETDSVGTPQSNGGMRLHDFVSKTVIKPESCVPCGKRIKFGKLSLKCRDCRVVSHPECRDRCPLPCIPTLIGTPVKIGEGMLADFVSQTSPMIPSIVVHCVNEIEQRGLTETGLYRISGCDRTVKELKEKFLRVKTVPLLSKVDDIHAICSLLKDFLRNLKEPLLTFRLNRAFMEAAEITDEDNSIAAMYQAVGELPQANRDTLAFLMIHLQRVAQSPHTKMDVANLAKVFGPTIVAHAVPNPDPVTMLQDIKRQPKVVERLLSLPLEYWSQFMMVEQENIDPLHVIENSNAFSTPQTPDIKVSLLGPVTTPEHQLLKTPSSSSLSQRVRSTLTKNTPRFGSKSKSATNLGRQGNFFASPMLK

[2] = viability of HCT116 lacking mutant beta-catenin – cell-based, human colon tumor, dose response (AID 1045); type: functional;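 further: HCT116 colon tumor cells with beta catenin knocked out; cells exposed to compound for 60 hours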
[3] = viability of PTEN-deleted HCT116 cells – cell-based, HCT116 PTEN knockout, dose response (AID 1047); type: functional;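 further: HCT116 colon tumor cells with PTEN knocked out; cells exposed to compound for 60 hours before readout; potency for loss of cell viability measured by luminescence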
Vero = assay: viability of Vero cells under compound – cytotoxicity control for flavivirus capping enzyme inhibitors (AID 588742); type: functional; settings: Chlorocebus sabaeus
[4] = target: T2, Mannose-6-phosphate isomerase (Homo sapiens, UniProt P34949); assay: MPI inhibition at elevated mannose 6-phosphate – biochemical, fluorescence intensity, high mannose 6-phosphate, primary screen (AID 1220)
T2 sequence (P34949 whole entry): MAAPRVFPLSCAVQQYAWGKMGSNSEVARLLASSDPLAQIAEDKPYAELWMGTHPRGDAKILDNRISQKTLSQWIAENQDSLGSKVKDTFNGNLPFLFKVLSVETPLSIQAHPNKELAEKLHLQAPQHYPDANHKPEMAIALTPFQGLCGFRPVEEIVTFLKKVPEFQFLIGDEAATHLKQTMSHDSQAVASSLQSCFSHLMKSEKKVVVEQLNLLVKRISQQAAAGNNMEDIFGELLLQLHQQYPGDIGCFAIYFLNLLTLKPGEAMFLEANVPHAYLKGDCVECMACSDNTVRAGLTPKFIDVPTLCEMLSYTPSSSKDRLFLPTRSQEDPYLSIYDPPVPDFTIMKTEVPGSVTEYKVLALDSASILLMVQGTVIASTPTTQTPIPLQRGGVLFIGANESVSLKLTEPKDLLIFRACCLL

Nonstructural protein 1 = Nonstructural protein 1 (Influenza A virus, UniProt Q194T2); type: functional, Influenza A virus (A/California/07/2009(H1N1))
Sequence of Nonstructural protein 1 (Q194T2 whole entry): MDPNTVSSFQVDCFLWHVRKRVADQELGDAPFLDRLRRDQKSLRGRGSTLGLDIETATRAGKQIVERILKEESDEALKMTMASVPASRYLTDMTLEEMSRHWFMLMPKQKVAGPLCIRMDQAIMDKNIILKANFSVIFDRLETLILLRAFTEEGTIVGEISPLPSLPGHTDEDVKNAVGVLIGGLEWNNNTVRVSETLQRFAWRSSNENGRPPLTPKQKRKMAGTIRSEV

[5] = target: T3, Histone-lysine N-methyltransferase NSD2 (Homo sapiens, UniProt O96028); type: biochemical
T3 sequence (O96028 whole entry): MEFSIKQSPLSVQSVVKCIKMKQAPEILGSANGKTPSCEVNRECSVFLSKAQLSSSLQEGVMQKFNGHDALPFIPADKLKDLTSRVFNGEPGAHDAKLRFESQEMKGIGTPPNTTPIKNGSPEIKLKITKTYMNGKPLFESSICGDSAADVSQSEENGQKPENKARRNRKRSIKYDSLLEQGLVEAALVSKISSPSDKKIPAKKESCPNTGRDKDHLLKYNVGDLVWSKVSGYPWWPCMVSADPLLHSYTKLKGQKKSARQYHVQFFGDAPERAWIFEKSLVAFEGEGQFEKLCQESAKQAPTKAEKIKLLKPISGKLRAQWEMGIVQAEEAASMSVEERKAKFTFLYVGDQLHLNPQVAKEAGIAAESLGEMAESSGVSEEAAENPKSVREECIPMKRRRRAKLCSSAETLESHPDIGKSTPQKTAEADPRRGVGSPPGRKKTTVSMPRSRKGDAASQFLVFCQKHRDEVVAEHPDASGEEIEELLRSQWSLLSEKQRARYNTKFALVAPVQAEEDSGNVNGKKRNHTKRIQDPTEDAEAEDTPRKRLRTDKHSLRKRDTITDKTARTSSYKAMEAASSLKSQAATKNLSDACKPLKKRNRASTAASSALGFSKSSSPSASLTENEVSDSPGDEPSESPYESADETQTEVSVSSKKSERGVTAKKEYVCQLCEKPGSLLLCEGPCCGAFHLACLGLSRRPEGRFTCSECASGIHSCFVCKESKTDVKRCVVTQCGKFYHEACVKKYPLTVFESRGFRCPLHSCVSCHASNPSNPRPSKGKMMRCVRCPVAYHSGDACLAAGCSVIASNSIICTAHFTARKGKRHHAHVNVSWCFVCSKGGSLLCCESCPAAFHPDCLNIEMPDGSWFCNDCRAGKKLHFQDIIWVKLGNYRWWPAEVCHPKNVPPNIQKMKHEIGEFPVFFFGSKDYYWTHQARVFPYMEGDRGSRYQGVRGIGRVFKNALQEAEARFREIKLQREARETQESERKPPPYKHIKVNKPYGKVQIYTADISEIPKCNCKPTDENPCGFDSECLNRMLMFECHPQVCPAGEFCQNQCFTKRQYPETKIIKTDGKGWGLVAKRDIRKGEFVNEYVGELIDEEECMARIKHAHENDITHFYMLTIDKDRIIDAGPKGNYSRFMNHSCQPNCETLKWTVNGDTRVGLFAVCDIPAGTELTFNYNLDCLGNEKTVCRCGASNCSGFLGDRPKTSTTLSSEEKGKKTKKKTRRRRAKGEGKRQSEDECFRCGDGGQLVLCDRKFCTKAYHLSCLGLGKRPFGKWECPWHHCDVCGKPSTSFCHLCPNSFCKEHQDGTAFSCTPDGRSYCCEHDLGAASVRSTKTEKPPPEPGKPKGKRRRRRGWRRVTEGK

[6] = viability loss in HeLa cells – cytotoxicity control for MgcRacGAP inhibitor project, dose response (AID 624300); type: functional
Galanin receptor type 2 = Galanin receptor type 2 (Homo sapiens, UniProt O43603); assay: Dose Response cell-based high-throughput screening assay to identify antagonists of galanin receptor 2 (GALR2). [Related pubchem assays: 828, 866 ]; type: functional
Sequence of Galanin receptor type 2 (O43603 whole entry): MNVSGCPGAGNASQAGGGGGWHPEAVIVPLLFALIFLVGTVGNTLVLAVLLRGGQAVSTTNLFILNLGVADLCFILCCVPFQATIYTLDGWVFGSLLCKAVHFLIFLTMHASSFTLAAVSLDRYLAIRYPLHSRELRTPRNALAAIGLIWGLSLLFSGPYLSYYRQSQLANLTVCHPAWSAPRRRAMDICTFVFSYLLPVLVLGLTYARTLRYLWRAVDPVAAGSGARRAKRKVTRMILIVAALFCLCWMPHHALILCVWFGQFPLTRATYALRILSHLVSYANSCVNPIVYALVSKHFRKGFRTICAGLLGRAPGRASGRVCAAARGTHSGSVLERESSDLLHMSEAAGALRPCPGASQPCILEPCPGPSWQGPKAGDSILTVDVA

[7] = Luminescence Cell-Based Dose Confirmation to Identify Activators of 5'UTR Stem-Loop Driven Alpha-Synuclein mRNA Translation in H4 Neuroglioblastoma Cells. [Related pubchem assays: 1829 (Project Summary), 1814 (Primary HTS)]; type: functional
[8] = Luminescence Cell-Based Dose Response to Identify Activators of Luciferase Translation or Activity in H4-C Neuroglioblastoma Cells. [Related pubchem assays: 1829 (Project Summary), 1814 (Primary HTS)]; type: functional
[9] = fluconazole-exposed Candida albicans growth modulators – fluorescence, retest, confirmation (AID 2467); type: functional, cell-based
[10] = NIH-3T3 fibroblast cytotoxicity, dose response, cytotoxicity control, cell-based, fluorescence, Alamar Blue, secondary assay (AID 2327); type: functional;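 further: NIH-3T3 mouse fibroblasts cultured with fluconazole at 8 µg/mL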
[11] = target: T4, Polyadenylate-binding protein 1 (Homo sapiens, UniProt P11940); assay: MLLE binding blockers, Cy5 peptide tracer – biochemical, fluorescence polarization, Cy5-PAM2 peptide, secondary, miRNA deadenylation inhibitor project, dose response (AID 602260); type: functional; settings: read-out: IC50_Mean
T4 sequence (P11940 whole entry): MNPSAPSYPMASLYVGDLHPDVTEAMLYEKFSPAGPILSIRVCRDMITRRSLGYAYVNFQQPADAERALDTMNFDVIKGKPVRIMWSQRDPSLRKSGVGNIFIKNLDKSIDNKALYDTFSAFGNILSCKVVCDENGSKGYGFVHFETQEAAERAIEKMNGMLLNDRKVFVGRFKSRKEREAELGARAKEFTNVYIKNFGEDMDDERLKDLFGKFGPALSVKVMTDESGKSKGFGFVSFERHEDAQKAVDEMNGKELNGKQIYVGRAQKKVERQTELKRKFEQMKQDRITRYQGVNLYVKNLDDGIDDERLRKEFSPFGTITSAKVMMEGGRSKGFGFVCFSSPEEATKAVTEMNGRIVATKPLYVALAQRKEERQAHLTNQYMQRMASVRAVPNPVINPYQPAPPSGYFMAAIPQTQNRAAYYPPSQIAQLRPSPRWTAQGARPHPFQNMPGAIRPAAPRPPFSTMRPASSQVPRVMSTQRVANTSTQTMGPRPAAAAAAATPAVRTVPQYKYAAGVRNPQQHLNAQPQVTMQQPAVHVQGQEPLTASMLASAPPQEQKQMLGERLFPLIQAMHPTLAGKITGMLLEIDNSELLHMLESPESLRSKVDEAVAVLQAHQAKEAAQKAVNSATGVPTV

[12] = Luminescence Cell-Based Dose Response HTS to Identify Activators of Luciferase Translation or Activity in H4 […] Cells. [Related pubchem assays: 1829 (Project Summary), 1814 (Primary HTS)]; type: functional
[13] = target: Voltage-gated inwardly rectifying potassium channel KCNH2 (Homo sapiens, UniProt Q12809); assay: concentration-dependent hERG rescue from blockers – cell-based, thallium flux, dose response (AID 2121); type: ADME
Sequence of Voltage-gated inwardly rectifying potassium channel KCNH2 (Q12809 whole entry, the tested form may be a part): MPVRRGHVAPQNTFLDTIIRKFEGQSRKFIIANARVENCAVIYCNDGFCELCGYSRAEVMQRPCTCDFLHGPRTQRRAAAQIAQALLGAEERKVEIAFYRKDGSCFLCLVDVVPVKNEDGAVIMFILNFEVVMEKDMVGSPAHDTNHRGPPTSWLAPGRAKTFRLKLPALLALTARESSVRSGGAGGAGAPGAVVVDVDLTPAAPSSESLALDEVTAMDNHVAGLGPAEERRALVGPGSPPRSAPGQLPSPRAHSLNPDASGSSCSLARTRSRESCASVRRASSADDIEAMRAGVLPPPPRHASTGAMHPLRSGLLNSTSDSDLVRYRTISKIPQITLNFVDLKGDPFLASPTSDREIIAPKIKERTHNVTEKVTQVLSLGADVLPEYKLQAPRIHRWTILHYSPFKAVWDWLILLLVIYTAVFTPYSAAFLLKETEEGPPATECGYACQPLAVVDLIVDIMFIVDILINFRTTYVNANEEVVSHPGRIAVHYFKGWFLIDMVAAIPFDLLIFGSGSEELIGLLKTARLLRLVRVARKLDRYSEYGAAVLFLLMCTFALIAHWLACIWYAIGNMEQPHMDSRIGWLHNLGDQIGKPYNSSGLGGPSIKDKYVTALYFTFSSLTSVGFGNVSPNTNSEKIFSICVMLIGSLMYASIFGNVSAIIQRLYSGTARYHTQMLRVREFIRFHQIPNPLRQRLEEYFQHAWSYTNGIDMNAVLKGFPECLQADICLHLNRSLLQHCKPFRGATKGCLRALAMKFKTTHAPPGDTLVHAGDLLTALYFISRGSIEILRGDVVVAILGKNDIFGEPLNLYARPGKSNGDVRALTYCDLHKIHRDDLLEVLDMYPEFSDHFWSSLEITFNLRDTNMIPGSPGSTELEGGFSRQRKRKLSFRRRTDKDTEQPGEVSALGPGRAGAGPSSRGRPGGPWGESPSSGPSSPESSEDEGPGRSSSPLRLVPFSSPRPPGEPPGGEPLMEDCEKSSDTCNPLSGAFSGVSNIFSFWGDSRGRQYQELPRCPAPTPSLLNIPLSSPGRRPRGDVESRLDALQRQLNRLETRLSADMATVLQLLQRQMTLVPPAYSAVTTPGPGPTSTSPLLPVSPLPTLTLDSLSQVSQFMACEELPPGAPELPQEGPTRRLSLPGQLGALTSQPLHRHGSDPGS

[14] = target: T4, Polyadenylate-binding protein 1; assay: MLLE domain peptide-binding blockers, IC50 – biochemical, fluorescence polarization, FITC-PAM2 peptide, dose response (AID 602259); type: functional; settings: read-out: IC50_Mean
[15] = target: Peroxisome proliferator-activated receptor gamma/Nuclear receptor corepressor 2 (Homo sapiens, UniProt P37231+Q9Y618); type: functional
[16] = Luminescence Cell-Based Dose Response to Identify Activators of 5'UTR Stem-Loop Driven Prion Protein mRNA Translation in H4-C Neuroglioblastoma Cells. [Related pubchem assays: 1829 (Project Summary), 1814 (Primary HTS)]; type: functional
Estrogen receptor beta = Estrogen receptor beta (Homo sapiens, UniProt Q92731);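 further: recombinant ER-beta bound to coactivator SRC1 peptide in presence of estradiol agonist; inhibitors block coactivator peptide binding and lower the FRET signal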
Sequence of Estrogen receptor beta (Q92731 whole entry): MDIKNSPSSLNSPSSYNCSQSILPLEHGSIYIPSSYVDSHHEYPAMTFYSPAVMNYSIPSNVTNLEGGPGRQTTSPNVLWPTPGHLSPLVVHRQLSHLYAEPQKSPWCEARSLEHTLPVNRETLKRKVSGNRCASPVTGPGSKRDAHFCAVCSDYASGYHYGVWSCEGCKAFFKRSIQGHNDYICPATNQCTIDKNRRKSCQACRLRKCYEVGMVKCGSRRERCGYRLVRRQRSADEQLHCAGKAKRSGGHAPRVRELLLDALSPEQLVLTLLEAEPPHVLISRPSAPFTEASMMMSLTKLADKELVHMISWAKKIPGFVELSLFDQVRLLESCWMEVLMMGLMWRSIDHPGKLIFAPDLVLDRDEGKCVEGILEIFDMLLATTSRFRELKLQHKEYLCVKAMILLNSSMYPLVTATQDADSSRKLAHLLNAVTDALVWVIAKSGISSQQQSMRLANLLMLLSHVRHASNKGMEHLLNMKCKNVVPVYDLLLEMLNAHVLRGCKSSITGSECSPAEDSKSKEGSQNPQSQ

[17] = target: Photoreceptor-specific nuclear receptor (Homo sapiens, UniProt Q9Y5X4); type: functional;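 further: potency for compounds that break the NR2E3 corepressor complex and count as activators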
Sequence of Photoreceptor-specific nuclear receptor (Q9Y5X4 whole entry): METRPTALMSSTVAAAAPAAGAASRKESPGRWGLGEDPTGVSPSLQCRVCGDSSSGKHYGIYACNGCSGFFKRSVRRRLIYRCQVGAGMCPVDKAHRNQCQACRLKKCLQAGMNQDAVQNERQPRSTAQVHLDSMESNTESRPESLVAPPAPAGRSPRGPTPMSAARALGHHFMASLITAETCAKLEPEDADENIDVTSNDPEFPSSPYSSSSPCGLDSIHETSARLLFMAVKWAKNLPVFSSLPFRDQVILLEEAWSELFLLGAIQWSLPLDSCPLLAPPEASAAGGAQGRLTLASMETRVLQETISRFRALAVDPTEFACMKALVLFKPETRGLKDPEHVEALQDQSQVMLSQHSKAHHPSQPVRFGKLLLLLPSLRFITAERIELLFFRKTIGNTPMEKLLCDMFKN

[18] = NIH3T3 cell viability loss – ATP luminescence, mouse fibroblasts, counter-screen, dose response (AID 2010); type: functional, cell-based;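 further: cells exposed to compound for about 90 hours before reading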
[19] = HepG2 cell cytotoxicity, dose response, cytotoxicity control for non-replicating M. tuberculosis project (AID 489018); type: functional; settings: Mycobacterium tuberculosis
cells = type: functional
[20] = Trypanosoma cruzi growth suppression in host cells – NIH3T3 host cells, beta-gal luminescence, confirmation (AID 2044); type: functional, cell-based;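 further: intracellular parasites grown in NIH/3T3 mouse fibroblasts as host cells; luminescent beta-galactosidase reporter signal from transgenic T. cruzi replicating inside host cells; inhibitors lower the luminescence signal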
[21] = Vero E6 cell cytotoxicity, dose response, cytotoxicity control for non-replicating M. tuberculosis project, secondary assay (AID 492998); type: functional, VeroE6; settings: Vero C1008
[22] = target: Aryl hydrocarbon receptor (Homo sapiens, UniProt P35869); assay: Luminescence-based cell-based high throughput dose response assay for activators of the Aryl Hydrocarbon Receptor (AHR). [Related pubchem assays: 2796 (Primary screen (AHR activators in singlicate)), 2845 (Confirmation screen (AHR activators in triplicate)), 434939 (Counterscreen (PXR activators in triplicate)), 2804 (Summary (AHR activators))]; type: ADME
Sequence of Aryl hydrocarbon receptor (P35869 whole entry): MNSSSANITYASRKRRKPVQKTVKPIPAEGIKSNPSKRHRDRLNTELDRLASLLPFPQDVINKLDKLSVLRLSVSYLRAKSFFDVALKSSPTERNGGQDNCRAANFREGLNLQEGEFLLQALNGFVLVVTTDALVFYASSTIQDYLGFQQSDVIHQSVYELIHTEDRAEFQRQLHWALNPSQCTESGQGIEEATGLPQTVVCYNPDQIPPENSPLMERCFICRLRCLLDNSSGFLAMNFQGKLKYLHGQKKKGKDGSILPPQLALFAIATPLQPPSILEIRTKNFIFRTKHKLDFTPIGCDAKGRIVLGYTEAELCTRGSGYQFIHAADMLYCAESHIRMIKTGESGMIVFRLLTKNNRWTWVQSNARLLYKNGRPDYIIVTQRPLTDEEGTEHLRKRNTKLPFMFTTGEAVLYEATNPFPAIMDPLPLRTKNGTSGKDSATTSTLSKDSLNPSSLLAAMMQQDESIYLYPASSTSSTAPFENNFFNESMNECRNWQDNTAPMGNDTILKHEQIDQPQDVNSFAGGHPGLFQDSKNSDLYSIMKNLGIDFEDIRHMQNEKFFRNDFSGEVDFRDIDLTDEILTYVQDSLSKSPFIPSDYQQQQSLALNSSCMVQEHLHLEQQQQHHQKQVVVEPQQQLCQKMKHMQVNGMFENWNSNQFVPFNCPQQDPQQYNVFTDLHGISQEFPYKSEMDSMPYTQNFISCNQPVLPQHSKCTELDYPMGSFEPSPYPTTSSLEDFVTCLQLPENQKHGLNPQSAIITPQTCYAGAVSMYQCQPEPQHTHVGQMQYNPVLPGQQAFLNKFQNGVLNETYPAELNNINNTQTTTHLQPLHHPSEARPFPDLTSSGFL

[23] = THP-1 cell cytotoxicity, dose response, cytotoxicity control for non-replicating M. tuberculosis project (AID 489025); type: functional

CN(C)c1ccc(NC2=C(Cl)C(=O)c3ccccc3C2=O)cc1
active: IC50 [1] 122 µM | EC50 [2] 3.94 µM | EC50 [3] 6.29 µM | CC50 (Vero) 32.2 µM | IC50 (Nonstructural protein 1) 7.36 µM | AC50 [5] 5.02 µM | CC50 [6] 16.1 µM | IC50 (Galanin receptor type 2) 8.84 µM
> 50 µM (not active): IC50 [4]

Cc1ccc(C(=O)Nc2nc3ccccc3c(=O)s2)cc1
inconclusive: EC50 [12] < 0.1 µM
inactive: EC50 [10] > 160 µM | IC50 [11] > 66 µM | IC50 [14] > 66 µM
> 39.8 µM (not active): IC50 [17]
active: EC50 [7] 0.295 µM | EC50 [8] 0.303 µM | EC50 [9] 10.2 µM | EC50 [13] 2.74 µM | IC50 [15] 2.71 µM | EC50 [16] 0.311 µM
> 50 µM (not active): IC50 (Estrogen receptor beta)

COc1ccc(/C=N/Nc2cc(C)nc3ccccc23)cc1
active: EC50 [18] 11.2 µM | CC50 [19] 12.5 µM | IC50 (cells) 11.1 µM | EC50 [20] 2.35 µM | CC50 [21] 11 µM | EC50 [22] > 1.13 µM | CC50 [23] 12.1 µM
